We go through 8 compounds from ChEMBL document CHEMBL1201862, “PubChem BioAssay data set” (2004).

What is called GI50 is the concentration at which growth is held to half of that of the control.

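Protocol summary: plate cells (96-well), add compound at 5 concentrations, incubate 48 h, interpolate endpoints linearly. GI50 = concentration required for 50% inhibition of growth.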 Calls of active or inactive are those of the source. No stated cut-off is given here; in the data, active = GI50 up to about 1.1 µM and inactive = higher.

Common to all, as to test: DTP human tumour cell line panel, 48 h
For assay [1], the system named is A549.
In assay [2] the test system is LOX IMVI.
Assay [3] has as its system UACC-257.
For assay [4], the system named is HCT-116.
In assay [5] the test system is SK-MEL-28.
Assay [6] relates to NCI-H522.
For assay [7], the system named is RPMI-8226.
The test system of assay [8] is HOP-62.
For assay [9], the system named is KM12.
The subject of assay [10] is SW-620.
The subject of assay [11] is HCT-15.
The subject of assay [12] is MDA-MB-435.
Assay [13] concerns A498.
Assay [14] deals with U-251.
Assay [15] deals with IGROV-1.
The test system of assay [16] is 786-0.
The subject of assay [17] is SK-MEL-2.
Assay [18] relates to HT-29.
Assay [19] deals with MOLT-4.

Regarding `COc1ccc(C(C)NNC(=O)c2cc[n+]([BH2-]C#N)cc2)cc1OC` (configuration not stated), the GI50 in assay [1], in assay [2], in assay [3], in assay [4], in assay [5] and in [6] was > 100 µM (inactive) each time. Besides, the GI50 is > 100 µM (inactive) in assay [7]; > 100 µM (inactive) in [8]; > 100 µM (inactive) in assay [9]; > 100 µM (inactive) in assay [10]; over 100 µM in [11]; > 100 µM (inactive) in [12]. Besides, the GI50 in [13], in assay [14], in [15], in [16], in assay [17] and in assay [18] was > 100 µM (inactive) each time. Further, the GI50 in [19] is > 100 µM (inactive).
With `CCOC(=O)/C=C(\C(=O)OCC)n1cc(Cl)c(=O)n(CC(=O)OCC)c1=O`, the GI50 in assay [1] is 19.9 µM (inactive); in [2] it was 4.99 µM (inactive); in assay [3] it was 2.96 µM (inactive); in assay [4] it was 2.19 µM (inactive); in assay [5], 16.7 µM (inactive); in [6], 0.78 µM (active). Also, the GI50 in assay [7] is 1.74 µM (inactive); in assay [8], 18 µM (inactive); in assay [9], 18.2 µM (inactive); in assay [10], 1.91 µM (inactive); in [11], 3.17 µM; in [12] it was 16.9 µM (inactive). In addition, the GI50 was 19.2 µM (inactive) in assay [13]; 15.6 µM (inactive) in assay [14]; 6.93 µM (inactive) in assay [15]; 1.73 µM (inactive) in [16]; 16.2 µM (inactive) in assay [17]; 16.5 µM (inactive) in assay [18]. Also, the GI50 in [19] was 1.91 µM (inactive).
For the compound `COc1ccc(OC/C(N)=N/NC(=O)c2ccncc2)cc1`, the GI50 in [1], in assay [2], in assay [3], in assay [4], in [5] and in [6] was > 100 µM (inactive) in each case. Also, the GI50 in [7] was > 100 µM (inactive); in assay [8], > 100 µM (inactive); in [9], > 100 µM (inactive); in assay [10] it was > 100 µM (inactive); in assay [11], over 100 µM; in [12], > 100 µM (inactive). Further, the GI50 in assay [13], in [14], in assay [15], in [16], in [17] and in assay [18] was > 100 µM (inactive) throughout. Further, the GI50 in assay [19] is > 100 µM (inactive).
On to `COc1cccc([C@H]2C/C(=N\NC(=O)C(=O)N[C@@H](C)c3ccccc3)c3ccccc3N2)c1`, for which the GI50 was 6.15 µM (inactive) in assay [1]; 0.0721 µM (active) in [2]; 0.0361 µM (active) in assay [3]; 0.0209 µM (active) in assay [4]; 0.0673 µM (active) in [5]; 9.42 µM (inactive) in assay [6]. Besides, the concentration for 50% growth inhibition (GI50) was < 0.01 µM (active) in assay [7]; 4.51 µM (inactive) in assay [8]; < 0.01 µM (active) in [9]; 0.0339 µM (active) in assay [10]; under 0.01 µM in [11]; < 0.01 µM (active) in [12]. For the same compound, the GI50 in [13] was 0.0417 µM (active); in assay [14], 7.67 µM (inactive); in assay [15] it was > 10 µM (inactive); in assay [16] it was 0.0374 µM (active); in assay [17], 3.69 µM (inactive); in assay [18], > 10 µM (inactive). Further, the GI50 in assay [19] is > 10 µM (inactive).
On to `Nc1nc(Nc2cc(F)c(Cl)c(F)c2)cc(=O)[nH]1`, for which the GI50 in [1] was 76.4 µM (inactive); in assay [2], > 100 µM (inactive); in assay [3], > 100 µM (inactive); in assay [4], 74.3 µM (inactive); in assay [5] it was > 100 µM (inactive); in assay [6], 28.4 µM (inactive). For the same compound, the GI50 is 56.4 µM (inactive) in assay [7]; > 100 µM (inactive) in assay [8]; 27 µM (inactive) in assay [9]; 91 µM (inactive) in assay [10]; over 100 µM in [11]; 44.4 µM (inactive) in [12]. In addition, the GI50 in assay [13] was 94.8 µM (inactive); in [14], 81.7 µM (inactive); in [15], > 100 µM (inactive); in assay [16], 76.4 µM (inactive); in [17], 71.4 µM (inactive); in assay [18] it was > 100 µM (inactive). In addition, the GI50 in [19] is 55.6 µM (inactive).
As to `CCOP(=O)(OCC)C1=C(c2ccccc2)OC(N)=C(C#N)C1c1ccc(Cl)cc1` (configuration not stated), the GI50 in assay [1] is > 100 µM (inactive); in [2], > 100 µM (inactive); in [3] it was > 100 µM (inactive); in [4] it was > 100 µM (inactive); in assay [5], > 100 µM (inactive); in [6], 67.9 µM (inactive). The GI50 was > 100 µM (inactive) in [7]; > 100 µM (inactive) in assay [8]; > 100 µM (inactive) in [9]; > 100 µM (inactive) in assay [10]; over 100 µM in assay [11]; > 100 µM (inactive) in assay [12]. In addition, the GI50 in [13], in assay [14], in assay [15], in [16], in assay [17] and in [18] was > 100 µM (inactive) each time. Moreover, the GI50 in [19] is > 100 µM (inactive).
Turning to `CCOC(=O)/C=C(/OCC)[C@@H]1C(C(=O)c2ccc(Cl)cc2)[C@@H]1/C(=C\C(=O)OCC)OCC` (some centres not stated), the GI50 in assay [1] was 10.9 µM (inactive); in assay [2], 24.3 µM (inactive); in [3] it was 6.75 µM (inactive); in assay [4] it was 5.18 µM (inactive); in assay [5], 41.7 µM (inactive); in assay [6], 3.62 µM (inactive). In addition, the GI50 in assay [7] is 2.79 µM (inactive); in assay [8], 14.3 µM (inactive); in [9], 6.87 µM (inactive); in assay [10] it was 12.6 µM (inactive); in assay [11], over 33 µM; in assay [12], 6.58 µM (inactive). For the same compound, the GI50 in [13] was 8.89 µM (inactive); in [14], 4.99 µM (inactive); in [15] it was 56.5 µM (inactive); in assay [16], > 33.7 µM (inactive); in assay [17], 56.4 µM (inactive); in [18] it was 7.53 µM (inactive). Also, the GI50 in [19] was 3.98 µM (inactive).
Take `O[C@H]1[C@H](O)[C@@H](Cn2nnc(-c3ccccc3)c2-c2ccccc2)OCO[C@@H]1Cn1nnc(-c2ccccc2)c1-c1ccccc1`: the GI50 in [1] is 3.74 µM (inactive); in [2] it was 2.32 µM (inactive); in assay [3] it was 4.32 µM (inactive); in assay [4] it was 3.11 µM (inactive); in [5], 6.18 µM (inactive); in [6], 5.31 µM (inactive). The GI50 in assay [7] was 2.32 µM (inactive); in assay [8], 13.1 µM (inactive); in [9] it was 3.63 µM (inactive); in assay [10] it was 5.22 µM (inactive); in assay [11], 3.1 µM; in assay [12] it was 5.04 µM (inactive). In addition, the GI50 in assay [13] is 6.47 µM (inactive); in [14], 3.73 µM (inactive); in assay [15], 3.65 µM (inactive); in assay [16], 2.88 µM (inactive); in assay [17], 3.15 µM (inactive); in assay [18], 2.26 µM (inactive). In [19], the GI50 was 2.7 µM (inactive).
